Earlier results as cited in US20210121562A1, “PHARMACEUTICAL COMPOSITION FOR TREATMENT AND/OR PREVENTION OF CANCER” (TORAY INDUSTRIES, INC., priority 2018, published 2021).

Key:
[1] = system: extramammary Paget's disease; details: supportive care for extramammary Paget's disease
basal cell cancer = basal cell cancer in patients having histories of rituximab administration for non-Hodgkin lymphoma

In the case of `CC(C)Cn1cnc2c(N)nc3ccccc3c21` [imiquimod, 4-amino-1-(2-methylpropyl)-1H-imidazo[4,5-c]quinoline], the cases completely responded [1] is listed as 7 out of 9 and the “antitumor effect of imiquimod” value (basal cell cancer) is listed as “attenuated”.
